# Assay results taken from ChEMBL document CHEMBL3046832, “Synthesis of some sulfonamides, disubstituted sulfonylureas or thioureas and some structurally related variants. A class of promising antitumor agents” (2007).
# Key:
# Type in all cases: functional
# [1] = system: MDA-MB-435; assay: Cytotoxicity against Homo sapiens (human) MDA-MB-435 cells after 48 hr by SRB assay; details: MDA-MB-435, 48 h
# [2] = system: Hs-578T; assay: Cytotoxicity against Homo sapiens (human) Hs578T cells after 48 hr by SRB assay
# [3] = system: MCF7; assay: Cytotoxicity against Homo sapiens (human) MCF7 cells after 48 hr by SRB assay; details: MCF7, 48 h
# [4] = system: DU-145; assay: Cytotoxicity against Homo sapiens (human) DU145 cells after 48 hr by SRB assay; details: DU-145, 48 h
# [5] = system: UO-31; assay: Cytotoxicity against Homo sapiens (human) UO31 cells after 48 hr by SRB assay; details: UO-31, 48 h
# [6] = system: RXF 393; assay: Cytotoxicity against Homo sapiens (human) RXF393 cells after 48 hr by SRB assay; details: RXF 393, 48 h
# [7] = system: SN12C; assay: Cytotoxicity against Homo sapiens (human) SN12C cells after 48 hr by SRB assay
# [8] = system: CAKI-1; assay: Cytotoxicity against Homo sapiens (human) Caki1 cells after 48 hr by SRB assay; details: CAKI-1, 48 h
# [9] = system: ACHN; assay: Cytotoxicity against Homo sapiens (human) ACHN cells after 48 hr by SRB assay
# [10] = system: 786-0; assay: Cytotoxicity against Homo sapiens (human) 786-0 cells after 48 hr by SRB assay; details: 786-0, 48 h
# [11] = Cytotoxicity against Homo sapiens (human) NCI-ADR-RES cells after 48 hr by SRB assay
# [12] = system: SK-OV-3; assay: Cytotoxicity against Homo sapiens (human) SKOV3 cells after 48 hr by SRB assay; details: SK-OV-3, 48 h
# [13] = system: OVCAR-8; assay: Cytotoxicity against Homo sapiens (human) OVCAR8 cells after 48 hr by SRB assay; details: OVCAR-8, 48 h
# [14] = system: OVCAR-5; assay: Cytotoxicity against Homo sapiens (human) OVCAR5 cells after 48 hr by SRB assay; details: OVCAR-5, 48 h
# [15] = system: OVCAR-4; assay: Cytotoxicity against Homo sapiens (human) OVCAR4 cells after 48 hr by SRB assay; details: OVCAR-4, 48 h
# [16] = system: UACC-62; assay: Cytotoxicity against Homo sapiens (human) UACC62 cells after 48 hr by SRB assay; details: UACC-62, 48 h
# [17] = system: UACC-257; assay: Cytotoxicity against Homo sapiens (human) UACC257 cells after 48 hr by SRB assay; details: UACC-257, 48 h
# [18] = system: SK-MEL-2; assay: Cytotoxicity against Homo sapiens (human) SK-MEL-2 cells after 48 hr by SRB assay; details: SK-MEL-2, 48 h
# [19] = system: SK-MEL-28; assay: Cytotoxicity against Homo sapiens (human) SK-MEL-28 cells after 48 hr by SRB assay; details: SK-MEL-28, 48 h
# [20] = Cytotoxicity against Homo sapiens (human) breast cancer cells after 48 hr by SRB assay; details: Cancer cell lines
# [21] = Cytotoxicity against Homo sapiens (human) renal cancer cells after 48 hr by SRB assay; details: Cancer cell lines
# [22] = Cytotoxicity against Homo sapiens (human) ovarian cancer cells after 48 hr by SRB assay; details: Cancer cell lines
# [23] = Cytotoxicity against Homo sapiens (human) melanoma cells after 48 hr by SRB assay; details: Melanoma cell
# [24] = Cytotoxicity against Homo sapiens (human) CNS cancer cells after 48 hr by SRB assay; details: Cancer cell lines
# [25] = system: NCI-H460; assay: Cytotoxicity against Homo sapiens (human) NCI-H460 cells assessed as cellular growth after 48 hr by Alamar blue assay; set-up: concentration or dose not given beside the values
# [26] = Cytotoxicity against Homo sapiens (human) leukemia cells after 48 hr by SRB assay; details: Leukemia cell
# [27] = system: SF-268; assay: Cytotoxicity against Homo sapiens (human) SF268 cells assessed as cellular growth after 48 hr by Alamar blue assay; set-up: concentration or dose not given beside the values
# [28] = system: BT-549; assay: Cytotoxicity against Homo sapiens (human) BT549 cells after 48 hr by SRB assay; details: BT-549, 48 h
# [29] = system: T47D; assay: Cytotoxicity against Homo sapiens (human) T47D cells after 48 hr by SRB assay
# [30] = system: SNB-19; assay: Cytotoxicity against Homo sapiens (human) SNB19 cells after 48 hr by SRB assay; details: SNB-19, 48 h
# [31] = system: SF-539; assay: Cytotoxicity against Homo sapiens (human) SF539 cells after 48 hr by SRB assay; details: SF-539, 48 h
# [32] = system: SF-295; assay: Cytotoxicity against Homo sapiens (human) SF295 cells after 48 hr by SRB assay; details: SF-295, 48 h
# [33] = system: SW-620; assay: Cytotoxicity against Homo sapiens (human) SW620 cells after 48 hr by SRB assay; details: SW-620, 48 h
# [34] = system: SF-268; assay: Cytotoxicity against Homo sapiens (human) SF268 cells after 48 hr by SRB assay; details: SF-268, 48 h
# [35] = system: KM12; assay: Cytotoxicity against Homo sapiens (human) KM12 cells after 48 hr by SRB assay; details: KM12, 48 h
# [36] = system: HCT-15; assay: Cytotoxicity against Homo sapiens (human) HCT15 cells after 48 hr by SRB assay; details: HCT-15, 48 h
# [37] = system: HT-29; assay: Cytotoxicity against Homo sapiens (human) HT-29 cells after 48 hr by SRB assay; details: HT-29, 48 h
# [38] = system: NCI-H522; assay: Cytotoxicity against Homo sapiens (human) NCI-H522 cells after 48 hr by SRB assay; details: NCI-H522, 48 h
# [39] = system: COLO 205; assay: Cytotoxicity against Homo sapiens (human) COLO205 cells after 48 hr by SRB assay; details: COLO 205, 48 h
# [40] = Cytotoxicity against Homo sapiens (human) NCI-H322 cells after 48 hr by SRB assay; details: NCI-H322, 48 h
# [41] = system: NCI-H460; assay: Cytotoxicity against Homo sapiens (human) NCI-H460 cells after 48 hr by SRB assay; details: NCI-H460, 48 h
# [42] = system: HOP-92; assay: Cytotoxicity against Homo sapiens (human) HOP92 cells after 48 hr by SRB assay; details: HOP-92, 48 h
# [43] = system: EKVX; assay: Cytotoxicity against Homo sapiens (human) EKVX cells after 48 hr by SRB assay
# [44] = system: HOP-62; assay: Cytotoxicity against Homo sapiens (human) HOP62 cells after 48 hr by SRB assay; details: HOP-62, 48 h
# [45] = system: RPMI-8226; assay: Cytotoxicity against Homo sapiens (human) RPMI8226 cells after 48 hr by SRB assay; details: RPMI-8226, 48 h
# [46] = system: CCRF-CEM; assay: Cytotoxicity against Homo sapiens (human) CCRF-CEM cells after 48 hr by SRB assay
# [47] = system: MCF7; assay: Cytotoxicity against Homo sapiens (human) MCF7 cells assessed as cellular growth after 48 hr by Alamar blue assay; set-up: concentration or dose not given beside the values
compound,measurement,setting,value
O=C1CCS/C(=N\S(=O)(=O)c2ccc(N3N=C4c5ccccc5CC4C3c3cccs3)cc2)N1C(=O)c1ccccc1 (stereo unspecified),GI50,[1],22.7 µM
same,GI50,[2],2.85 µM
same,GI50,[3],9.1 µM
same,GI50,[4],23.2 µM
same,GI50,[5],30.7 µM
same,GI50,[6],6.31 µM
same,GI50,[7],16.7 µM
same,GI50,[8],26.8 µM
same,GI50,[9],5.18 µM
same,GI50,[10],14.1 µM
same,GI50,[11],32.9 µM
same,GI50,[12],52.8 µM
same,GI50,[13],0.81 µM
same,GI50,[14],25.8 µM
same,GI50,[15],> 100 µM
same,GI50,[16],6.37 µM
same,GI50,[17],0.33 µM
same,GI50,[18],29.4 µM
same,GI50,[19],50.2 µM
same,GI50,[20],25.4 µM
same,TGI,[20],73.5 µM
same,GI50,[21],17.7 µM
same,TGI,[21],38.1 µM
same,GI50,[22],36.9 µM
same,TGI,[22],42.1 µM
same,GI50,[23],15.3 µM
same,TGI,[23],21.2 µM
same,GI50,[24],36.7 µM
same,TGI,[24],68.2 µM
same,Activity,[25],<=32%
same,GI50,[26],37.6 µM
same,TGI,[26],80.1 µM
same,Activity,[27],<=32%
same,GI50,[28],4.77 µM
same,GI50,[29],> 100 µM
same,GI50,[30],45.7 µM
same,GI50,[31],23.8 µM
same,GI50,[32],32.7 µM
same,GI50,[33],13.1 µM
same,GI50,[34],13.7 µM
same,GI50,[35],29.4 µM
same,GI50,[36],15.1 µM
same,GI50,[37],39.6 µM
same,GI50,[38],14.4 µM
same,GI50,[39],66.5 µM
same,GI50,[40],32.5 µM
same,GI50,[41],26.6 µM
same,GI50,[42],25.4 µM
same,GI50,[43],22.1 µM
same,GI50,[44],31.1 µM
same,GI50,[45],58.6 µM
same,GI50,[46],15 µM
same,Activity,[47],<=32%
O=C1CS/C(=N\S(=O)(=O)c2ccc(N3N=C4c5ccccc5CC4C3c3cccs3)cc2)N(c2ccccc2)C1 (stereo unspecified),GI50,[1],29.5 µM
same,GI50,[2],20.5 µM
same,GI50,[3],88.8 µM
same,GI50,[4],30.7 µM
same,GI50,[5],69.3 µM
same,GI50,[6],41 µM
same,GI50,[7],34.3 µM
same,GI50,[8],74.5 µM
same,GI50,[9],22.1 µM
same,GI50,[10],22.1 µM
same,GI50,[11],> 100 µM
same,GI50,[12],> 100 µM
same,GI50,[13],25.4 µM
same,GI50,[14],34.5 µM
same,GI50,[15],> 100 µM
same,GI50,[16],16.1 µM
same,GI50,[17],42.3 µM
same,GI50,[18],60.2 µM
same,GI50,[19],> 100 µM
same,GI50,[20],50.1 µM
same,TGI,[20],95.5 µM
same,GI50,[21],43.9 µM
same,TGI,[21],96.4 µM
same,GI50,[22],63.2 µM
same,TGI,[22],> 100 µM
same,GI50,[23],45.3 µM
same,TGI,[23],84.3 µM
same,GI50,[24],57.4 µM
same,TGI,[24],99.7 µM
same,Activity,[25],<=32%
same,GI50,[26],19.5 µM
same,TGI,[26],82.1 µM
same,Activity,[27],<=32%
same,GI50,[28],21.4 µM
same,GI50,[29],69.2 µM
same,GI50,[30],55.7 µM
same,GI50,[31],27.8 µM
same,GI50,[32],32.7 µM
same,GI50,[33],45.2 µM
same,GI50,[34],> 100 µM
same,GI50,[35],28.4 µM
same,GI50,[36],35.5 µM
same,GI50,[37],61 µM
same,GI50,[38],23.8 µM
same,GI50,[39],57.2 µM
same,GI50,[40],16.9 µM
same,GI50,[41],> 100 µM
same,GI50,[42],79.9 µM
same,GI50,[43],39.5 µM
same,GI50,[44],17.4 µM
same,GI50,[45],31 µM
same,GI50,[46],36.8 µM
same,Activity,[47],<=32%
